Each structure is given as a SMILES string.

We go through 8 compounds from US9630963B2, “Quinolone derivatives as fibroblast growth factor inhibitors” (Principia Biopharma, Inc., priority 2013, dated 2017).

The subject of one assay is SNU-16 cells. The assay can be described thus: Inhibition of FGFR2-dependent cell growth (Cell-titer Glo). In kind it is cell-based. To be noted: Homo sapiens, SNU16 cells, 72 hrs incubation, cell viability by Cell-titer Glo. Here is the method: The cell-based effects of FGFR inhibitors were determined by measuring inhibition of FGFR-dependent cell line growth. […] Percent inhibition of cell growth was calculated as a percentage of untreated cell viability. The percent inhibition was plotted as a function of log compound concentration. The IC50 was then calculated for each compound using Prism software from GraphPad.

The target of another assay is human recombinant FGFR1 (Homo sapiens, UniProt P11362). Nature of the assay: FGFR family enzymatic activity assay (Caliper-based kinase assay), FGFR1. In kind it is biochemical. The conditions noted are these: FGFR1 0.5 nM, ATP 100 μM, peptide substrate 1 μM, room temperature 3 h. The source says: (§1) A Caliper-based kinase assay (Caliper Life Sciences, Hopkinton, Mass.) was used to measure inhibition of FGFR family (FGFR1, FGFR2, FGFR3, FGFR4) kinase activity of a compound of Formula (I′) or (I). […] This value is presented as the IC50.

The target of a further assay is human recombinant FGFR4 (Homo sapiens, UniProt P22455). Nature of the assay: FGFR family enzymatic activity assay (Caliper-based kinase assay), FGFR4. The class given is biochemical. The conditions noted are these: FGFR4 2 nM, ATP 250 μM, peptide substrate 1 μM, room temperature 3 h.
Excerpt: as §1

The target of a further assay is human recombinant FGFR3 (Homo sapiens, UniProt P22607). Nature of the assay: FGFR family enzymatic activity assay (Caliper-based kinase assay), FGFR3. In kind it is biochemical. To be noted: FGFR3 0.9 nM, ATP 120 μM, peptide substrate 1 μM, room temperature 3 h.
Excerpt: as §1

A further assay addresses human recombinant FGFR2 (Homo sapiens, UniProt P21802). Nature of the assay: FGFR family enzymatic activity assay (Caliper-based kinase assay), FGFR2. The class given is biochemical. To be noted: FGFR2 0.1 nM, ATP 75 μM, peptide substrate 1 μM, room temperature 3 h.
Excerpt: as §1

Sequence of human recombinant FGFR3 (P22607 23-806): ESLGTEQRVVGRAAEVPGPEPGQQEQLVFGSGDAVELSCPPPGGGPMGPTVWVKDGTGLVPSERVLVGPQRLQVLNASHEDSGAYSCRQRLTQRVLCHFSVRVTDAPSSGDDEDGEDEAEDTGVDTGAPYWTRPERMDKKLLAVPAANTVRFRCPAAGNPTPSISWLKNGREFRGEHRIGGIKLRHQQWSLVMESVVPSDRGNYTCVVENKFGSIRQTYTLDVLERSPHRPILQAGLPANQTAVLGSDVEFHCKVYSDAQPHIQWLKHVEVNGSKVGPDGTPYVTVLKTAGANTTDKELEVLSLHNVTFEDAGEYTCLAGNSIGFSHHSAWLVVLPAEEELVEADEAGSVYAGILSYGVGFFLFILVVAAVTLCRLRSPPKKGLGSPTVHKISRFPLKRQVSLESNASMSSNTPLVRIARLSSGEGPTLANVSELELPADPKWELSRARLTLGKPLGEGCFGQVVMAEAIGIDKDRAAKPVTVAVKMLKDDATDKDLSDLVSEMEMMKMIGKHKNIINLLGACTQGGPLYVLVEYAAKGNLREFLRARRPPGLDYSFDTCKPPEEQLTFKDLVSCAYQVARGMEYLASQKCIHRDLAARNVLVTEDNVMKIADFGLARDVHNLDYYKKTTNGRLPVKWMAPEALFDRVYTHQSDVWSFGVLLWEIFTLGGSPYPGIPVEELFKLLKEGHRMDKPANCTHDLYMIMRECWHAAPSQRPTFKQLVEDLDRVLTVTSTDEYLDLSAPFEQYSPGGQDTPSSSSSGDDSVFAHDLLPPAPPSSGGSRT
Sequence of human recombinant FGFR1 (P11362 22-822): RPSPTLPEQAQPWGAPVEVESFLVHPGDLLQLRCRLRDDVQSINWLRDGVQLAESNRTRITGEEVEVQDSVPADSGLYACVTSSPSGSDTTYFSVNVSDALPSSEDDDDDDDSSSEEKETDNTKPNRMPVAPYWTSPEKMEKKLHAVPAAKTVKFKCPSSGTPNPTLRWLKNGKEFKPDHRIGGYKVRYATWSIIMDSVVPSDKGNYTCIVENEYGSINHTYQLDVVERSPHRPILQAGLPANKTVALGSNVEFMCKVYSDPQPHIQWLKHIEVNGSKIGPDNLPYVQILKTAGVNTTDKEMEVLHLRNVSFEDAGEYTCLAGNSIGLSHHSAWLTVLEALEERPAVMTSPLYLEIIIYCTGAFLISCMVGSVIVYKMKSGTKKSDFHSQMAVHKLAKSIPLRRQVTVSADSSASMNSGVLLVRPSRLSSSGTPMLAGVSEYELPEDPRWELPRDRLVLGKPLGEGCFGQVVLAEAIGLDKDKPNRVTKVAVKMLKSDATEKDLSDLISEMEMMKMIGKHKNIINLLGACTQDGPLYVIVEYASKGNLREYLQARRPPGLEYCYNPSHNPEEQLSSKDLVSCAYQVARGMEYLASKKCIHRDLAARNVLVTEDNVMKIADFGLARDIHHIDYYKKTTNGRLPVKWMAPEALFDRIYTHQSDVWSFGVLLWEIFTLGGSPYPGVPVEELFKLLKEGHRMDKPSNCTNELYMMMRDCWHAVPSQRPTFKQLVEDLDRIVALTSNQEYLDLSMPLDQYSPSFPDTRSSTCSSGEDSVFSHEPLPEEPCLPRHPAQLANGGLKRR
Sequence of human recombinant FGFR2 (P21802 22-821): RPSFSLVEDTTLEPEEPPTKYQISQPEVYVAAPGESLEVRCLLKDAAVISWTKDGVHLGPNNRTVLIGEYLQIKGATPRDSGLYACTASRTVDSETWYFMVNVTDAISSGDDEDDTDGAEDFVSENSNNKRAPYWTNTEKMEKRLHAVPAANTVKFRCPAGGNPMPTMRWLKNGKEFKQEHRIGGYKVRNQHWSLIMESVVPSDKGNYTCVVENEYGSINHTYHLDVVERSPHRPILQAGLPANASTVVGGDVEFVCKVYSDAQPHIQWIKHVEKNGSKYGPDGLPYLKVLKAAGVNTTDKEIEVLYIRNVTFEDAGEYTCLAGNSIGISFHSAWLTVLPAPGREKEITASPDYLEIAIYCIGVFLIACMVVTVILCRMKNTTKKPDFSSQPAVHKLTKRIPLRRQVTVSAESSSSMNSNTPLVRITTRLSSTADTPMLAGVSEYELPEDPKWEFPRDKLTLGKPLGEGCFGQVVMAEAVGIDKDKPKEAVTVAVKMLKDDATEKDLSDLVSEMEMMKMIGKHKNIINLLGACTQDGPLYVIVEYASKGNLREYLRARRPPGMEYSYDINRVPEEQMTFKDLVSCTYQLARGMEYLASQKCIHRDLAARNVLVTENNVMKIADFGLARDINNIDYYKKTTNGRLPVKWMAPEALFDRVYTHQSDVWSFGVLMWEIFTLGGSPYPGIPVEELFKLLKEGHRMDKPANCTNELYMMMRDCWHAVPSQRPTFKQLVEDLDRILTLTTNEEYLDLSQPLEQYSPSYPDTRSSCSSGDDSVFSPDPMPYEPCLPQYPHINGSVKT
Sequence of human recombinant FGFR4 (P22455 22-802): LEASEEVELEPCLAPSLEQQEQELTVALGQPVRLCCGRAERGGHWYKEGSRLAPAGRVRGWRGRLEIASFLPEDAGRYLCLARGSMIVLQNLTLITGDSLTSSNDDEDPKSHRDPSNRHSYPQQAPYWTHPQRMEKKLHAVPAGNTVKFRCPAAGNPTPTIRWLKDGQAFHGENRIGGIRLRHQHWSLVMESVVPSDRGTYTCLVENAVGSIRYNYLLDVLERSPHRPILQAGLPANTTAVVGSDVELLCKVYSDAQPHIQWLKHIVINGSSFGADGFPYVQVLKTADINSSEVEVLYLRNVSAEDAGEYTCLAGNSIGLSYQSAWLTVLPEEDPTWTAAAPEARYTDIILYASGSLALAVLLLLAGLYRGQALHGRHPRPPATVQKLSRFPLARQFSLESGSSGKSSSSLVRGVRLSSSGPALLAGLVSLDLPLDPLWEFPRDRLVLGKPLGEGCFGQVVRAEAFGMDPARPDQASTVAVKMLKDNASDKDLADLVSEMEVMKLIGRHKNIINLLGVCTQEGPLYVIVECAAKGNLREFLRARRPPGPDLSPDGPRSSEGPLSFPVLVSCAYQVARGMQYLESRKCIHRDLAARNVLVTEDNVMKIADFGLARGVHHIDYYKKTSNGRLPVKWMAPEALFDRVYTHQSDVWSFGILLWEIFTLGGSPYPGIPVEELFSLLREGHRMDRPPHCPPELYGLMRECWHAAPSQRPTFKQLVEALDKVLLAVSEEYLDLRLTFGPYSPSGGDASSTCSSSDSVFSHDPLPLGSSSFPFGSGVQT

For orientation: IC50 means the concentration that gives 50% inhibition. With `C=CC(=O)Nc1ccc(CCn2c(=O)c(-c3c(Cl)c(OC)cc(OC)c3Cl)cc3cnc(NCCO)nc32)cc1` [Example 65, N-(4-(2-(6-(2,6-dichloro-3,5-dimethoxyphenyl)-2-((2-hydroxyethyl)amino)-7-oxopyrido[2,3-d]pyrimidin-8(7H)-yl)ethyl)phenyl)acrylamide], the IC50 with SNU-16 cells was 3 nM; on human recombinant FGFR1, 0.6 nM; at human recombinant FGFR4, 13.8 nM; at human recombinant FGFR3, 4.6 nM; at human recombinant FGFR2, 1.7 nM.
Taken in the same sequence, the figures for `C=CC(=O)Nc1ccc(CCn2c(=O)c(-c3cc(OC)cc(OC)c3Cl)cc3cnc(NCCN4CCOCC4)nc32)nc1` [Example 39, N-(6-(2-(6-(2-chloro-3,5-dimethoxyphenyl)-2-((2-morpholinoethyl)amino)-7-oxopyrido[2,3-d]pyrimidin-8(7H)-yl)ethyl)pyridin-3-yl)acrylamide] were 1.2 nM, 0.9 nM, 42 nM, 5.4 nM and 5.5 nM.
For `C=CC(=O)Nc1ccc(CCn2c(=O)c(-c3c(Cl)c(OC)cc(OC)c3Cl)cc3cnc(NCCN4CCOCC4)nc32)nc1` [Example 51, N-(6-(2-(6-(2,6-dichloro-3,5-dimethoxyphenyl)-2-(2-morpholinoethylamino)-7-oxopyrido[2,3-d]pyrimidin-8(7H)-yl)ethyl)pyridin-3-yl)acrylamide], the IC50 was 2.4 nM in the assay with SNU-16 cells; 1.8 nM at human recombinant FGFR1; 12.8 nM at human recombinant FGFR4; 5.4 nM at human recombinant FGFR3; 4.2 nM on human recombinant FGFR2.
`C=CC(=O)Nc1ccc(CCn2c(=O)c(-c3c(Cl)c(OC)cc(OC)c3Cl)cc3cnc(NCC(C)(C)O)nc32)cc1` [Example 64, N-(4-(2-(6-(2,6-dichloro-3,5-dimethoxyphenyl)-2-((2-hydroxy-2-methylpropyl)-amino)-7-oxopyrido[2,3-d]pyrimidin-8(7H)-yl)ethyl)phenyl)acrylamide]: the IC50 with SNU-16 cells was determined as 3.2 nM; on human recombinant FGFR1 it was 0.5 nM; at human recombinant FGFR4 it was 19.9 nM; on human recombinant FGFR3, 5.5 nM; at human recombinant FGFR2, 2.2 nM.
Turning to `C=CC(=O)Nc1ccc(CCn2c(=O)c(-c3c(Cl)c(OC)cc(OC)c3Cl)cc3cnc(NC4CCN(C)CC4)nc32)cc1` [Example 62, N-(4-(2-(6-(2,6-dichloro-3,5-dimethoxyphenyl)-2-((1-methylpiperidin-4-yl)amino)-7-oxopyrido[2,3-d]pyrimidin-8(7H)-yl)ethyl)phenyl)acrylamide], the IC50 in the assay on SNU-16 cells was 2.1 nM; on human recombinant FGFR1, 0.7 nM; at human recombinant FGFR4, 54.1 nM; at human recombinant FGFR3 it was 9.9 nM; at human recombinant FGFR2 it was 2 nM.
Regarding `C=CC(=O)Nc1ccc(CCn2c(=O)c(-c3c(Cl)c(OC)cc(OC)c3Cl)cc3cnc(NCC(O)CO)nc32)cc1` (stereo not shown) [Example 63, N-(4-(2-(6-(2,6-dichloro-3,5-dimethoxyphenyl)-2-((2,3-dihydroxypropyl)amino)-7-oxopyrido[2,3-d]pyrimidin-8(7H)-yl)ethyl)phenyl)acrylamide], the IC50 was determined as 3.1 nM in the assay on SNU-16 cells; 0.7 nM at human recombinant FGFR1; 9.7 nM on human recombinant FGFR4; 3.2 nM on human recombinant FGFR3; 0.9 nM at human recombinant FGFR2.
Taken in the same sequence, the figures for `C=CC(=O)Nc1ccc(CCn2c(=O)c(-c3c(Cl)c(OC)cc(OC)c3Cl)cc3cnc(NC)nc32)cc1` [Example 4, N-(4-(2-(6-(2,6-dichloro-3,5-dimethoxyphenyl)-2-(methylamino)-7-oxopyrido[2,3-d]pyrimidin-8(7H)-yl)ethyl)phenyl)acrylamide] were 1.4 nM, 1.3 nM, 10.4 nM, 3.1 nM and 1.6 nM.
In the same order, the values of `C=CC(=O)Nc1ccc(CCn2c(=O)c(-c3c(Cl)c(OC)cc(OC)c3Cl)cc3cnc(NC)nc32)nc1` [Example 38, N-(6-(2-(6-(2,6-dichloro-3,5-dimethoxyphenyl)-2-(methylamino)-7-oxopyrido[2,3-d]pyrimidin-8(7H)-yl)ethyl)pyridin-3-yl)acrylamide] are 2.5 nM, 1.2 nM, 6.3 nM, 3.3 nM and 2 nM.
